Test results: patent US20230220063A1, “IL-1BETA BINDING ANTIBODIES FOR USE IN TREATING CANCER” (NOVARTIS AG, priority 2017, published 2023)

System: incident cancers in post-myocardial infarction patients with hsCRP ≥2 mg/L
Assay: CANTOS trial: incident cancers, cancer mortality, canakinumab vs placebo
Assay type: in vivo, human

canakinumab: high-affinity, fully human monoclonal antibody of the IgG1/k to interleukin-1β; INN number 8836
Central Nervous System, incidence rate (number) (300 mg SC q 3 months): 0.03(3) per 100 person years
Endocrine: Adrenal, incidence rate (number) (300 mg SC q 3 months): 0.01(1) per 100 person years
Endocrine: Thyroid, incidence rate (number) (300 mg SC q 3 months): 0.01(1) per 100 person years
Gastrointenstinal: Appendiceal, incidence rate (number) (300 mg SC q 3 months): 0.01(1) per 100 person years
Gastrointenstinal: Biliary, incidence rate (number) (300 mg SC q 3 months): 0 per 100 person years
Gastrointenstinal: Colorectal, incidence rate (number) (300 mg SC q 3 months): 0.21(18) per 100 person years
Gastrointenstinal: Esophageal, incidence rate (number) (300 mg SC q 3 months): 0.08(7) per 100 person years
Gastrointenstinal: Gastric, incidence rate (number) (300 mg SC q 3 months): 0.06(5) per 100 person years
Gastrointenstinal: Oral cavity/tongue, incidence rate (number) (300 mg SC q 3 months): 0.02(2) per 100 person years
Gastrointenstinal: Pancreatic, incidence rate (number) (300 mg SC q 3 months): 0.06(5) per 100 person years
Genitourinary: Bladder, incidence rate (number) (300 mg SC q 3 months): 0.13(11) per 100 person years
Genitourinary: Cervical, incidence rate (number) (300 mg SC q 3 months): 0 per 100 person years
Genitourinary: Endometrial/Uterine, incidence rate (number) (300 mg SC q 3 months): 0.03(3) per 100 person years
Genitourinary: Ovarian, incidence rate (number) (300 mg SC q 3 months): 0 per 100 person years
Genitourinary: Prostate, incidence rate (number) (300 mg SC q 3 months): 0.17(15) per 100 person years
Genitourinary: Testicular, incidence rate (number) (300 mg SC q 3 months): 0 per 100 person years
Hematopoetic: Leukemia, incidence rate (number) (300 mg SC q 3 months): 0.01(1) per 100 person years
Hematopoetic: Lymphoma, incidence rate (number) (300 mg SC q 3 months): 0.07(6) per 100 person years
Hematopoetic: Multiple myeloma, incidence rate (number) (300 mg SC q 3 months): 0.02(2) per 100 person years
Kidney, incidence rate (number) (300 mg SC q 3 months): 0.07(6) per 100 person years
Liver, incidence rate (number) (300 mg SC q 3 months): 0.03(3) per 100 person years
Lung Cancers: Adenocarcinoma or poorly differentiated large cell carcinoma or unspecified, incidence rate (number) (300 mg SC q 3 months): 0.12 per 100 person years
Lung Cancers: Pleural cancer, incidence rate (number) (300 mg SC q 3 months): 0 per 100 person years
Lung Cancers: Small cell lung cancer, incidence rate (number) (300 mg SC q 3 months): 0.01 (1) per 100 person years
Lung Cancers: Squamous cell lung carcinoma, incidence rate (number) (300 mg SC q 3 months): 0.03 (3) per 100 person years
Other cancer sites: Other, incidence rate (number) (300 mg SC q 3 months): 0.02(2) per 100 person years
Sarcoma / Bone, incidence rate (number) (300 mg SC q 3 months): 0.01(1) per 100 person years
Skin: Basal cell carcinoma, incidence rate (number) (300 mg SC q 3 months): 0.21(18) per 100 person years
Skin: Melanoma, incidence rate (number) (300 mg SC q 3 months): 0.06(5) per 100 person years
Skin: Other, incidence rate (number) (300 mg SC q 3 months): 0.02(2) per 100 person years
Skin: Squamous cell skin cancer, incidence rate (number) (300 mg SC q 3 months): 0.27(23) per 100 person years
Lung Cancers: Adenocarcinoma or poorly differentiated large cell carcinoma or unspecified, incidence rate (number) (300 mg SC q 3 months, listed as Canakinumab): 0.12 (10) per 100 person years
total cancer mortality (300 mg SC, vs placebo): fell by half
Breast, incidence rate (number) (All Doses): 0.06(16) per 100 person years
Central Nervous System, incidence rate (number) (All Doses): 0.04(10) per 100 person years
Endocrine: Adrenal, incidence rate (number) (All Doses): 0.01(2) per 100 person years
Endocrine: Thyroid, incidence rate (number) (All Doses): 0.02(4) per 100 person years
Gastrointenstinal: Appendiceal, incidence rate (number) (All Doses): 0.00(1) per 100 person years
Gastrointenstinal: Biliary, incidence rate (number) (All Doses): 0.02(5) per 100 person years
Gastrointenstinal: Colorectal, incidence rate (number) (All Doses): 0.21(54) per 100 person years
Gastrointenstinal: Esophageal, incidence rate (number) (All Doses): 0.06(16) per 100 person years
Gastrointenstinal: Gastric, incidence rate (number) (All Doses): 0.04(10) per 100 person years
Gastrointenstinal: Oral cavity/tongue, incidence rate (number) (All Doses): 0.03(8) per 100 person years
Gastrointenstinal: Pancreatic, incidence rate (number) (All Doses): 0.05(13) per 100 person years
Genitourinary: Bladder, incidence rate (number) (All Doses): 0.10(26) per 100 person years
Genitourinary: Cervical, incidence rate (number) (All Doses): 0.00(1) per 100 person years
Genitourinary: Endometrial/Uterine, incidence rate (number) (All Doses): 0.02(5) per 100 person years
Genitourinary: Ovarian, incidence rate (number) (All Doses): 0.00(1) per 100 person years
Genitourinary: Prostate, incidence rate (number) (All Doses): 0.17(44) per 100 person years
Genitourinary: Testicular, incidence rate (number) (All Doses): 0.00(1) per 100 person years
Hematopoetic: Leukemia, incidence rate (number) (All Doses): 0.02(4) per 100 person years
Hematopoetic: Lymphoma, incidence rate (number) (All Doses): 0.05(13) per 100 person years
Hematopoetic: Multiple myeloma, incidence rate (number) (All Doses): 0.01(2) per 100 person years
Kidney, incidence rate (number) (All Doses): 0.09(22) per 100 person years
Liver, incidence rate (number) (All Doses): 0.04(11) per 100 person years
Lung Cancers: Adenocarcinoma or poorly differentiated large cell carcinoma or unspecified, incidence rate (number) (All Doses): 0.23 (59) per 100 person years
Lung Cancers: Pleural cancer, incidence rate (number) (All Doses): 0 per 100 person years
Lung Cancers: Small cell lung cancer, incidence rate (number) (All Doses): 0.01 (3) per 100 person years
Lung Cancers: Squamous cell lung carcinoma, incidence rate (number) (All Doses): 0.02 (6) per 100 person years
Other cancer sites: Other, incidence rate (number) (All Doses): 0.05(13) per 100 person years
Sarcoma / Bone, incidence rate (number) (All Doses): 0.01(2) per 100 person years
Skin: Basal cell carcinoma, incidence rate (number) (All Doses): 0.26(65) per 100 person years
Skin: Melanoma, incidence rate (number) (All Doses): 0.06(16) per 100 person years
Skin: Other, incidence rate (number) (All Doses): 0.03(7) per 100 person years
Skin: Squamous cell skin cancer, incidence rate (number) (All Doses): 0.17(44) per 100 person years
share of all cancers that were lung cancers (among those assigned to canakinumab (placebo 26.0%)): 16%
share of cancer deaths that were lung cancers (among those assigned to canakinumab (placebo 47%)): 34%
